Results on 1 compound are retold here after BindingDB's records for patent US20250059194 (Michigan State University, 2025).

Molecules are shown by their SMILES.

For this assay, the target named is T1, Serine/threonine-protein kinase ULK2 (Homo sapiens, UniProt Q8IYT8).
T1 sequence (Q8IYT8 whole entry): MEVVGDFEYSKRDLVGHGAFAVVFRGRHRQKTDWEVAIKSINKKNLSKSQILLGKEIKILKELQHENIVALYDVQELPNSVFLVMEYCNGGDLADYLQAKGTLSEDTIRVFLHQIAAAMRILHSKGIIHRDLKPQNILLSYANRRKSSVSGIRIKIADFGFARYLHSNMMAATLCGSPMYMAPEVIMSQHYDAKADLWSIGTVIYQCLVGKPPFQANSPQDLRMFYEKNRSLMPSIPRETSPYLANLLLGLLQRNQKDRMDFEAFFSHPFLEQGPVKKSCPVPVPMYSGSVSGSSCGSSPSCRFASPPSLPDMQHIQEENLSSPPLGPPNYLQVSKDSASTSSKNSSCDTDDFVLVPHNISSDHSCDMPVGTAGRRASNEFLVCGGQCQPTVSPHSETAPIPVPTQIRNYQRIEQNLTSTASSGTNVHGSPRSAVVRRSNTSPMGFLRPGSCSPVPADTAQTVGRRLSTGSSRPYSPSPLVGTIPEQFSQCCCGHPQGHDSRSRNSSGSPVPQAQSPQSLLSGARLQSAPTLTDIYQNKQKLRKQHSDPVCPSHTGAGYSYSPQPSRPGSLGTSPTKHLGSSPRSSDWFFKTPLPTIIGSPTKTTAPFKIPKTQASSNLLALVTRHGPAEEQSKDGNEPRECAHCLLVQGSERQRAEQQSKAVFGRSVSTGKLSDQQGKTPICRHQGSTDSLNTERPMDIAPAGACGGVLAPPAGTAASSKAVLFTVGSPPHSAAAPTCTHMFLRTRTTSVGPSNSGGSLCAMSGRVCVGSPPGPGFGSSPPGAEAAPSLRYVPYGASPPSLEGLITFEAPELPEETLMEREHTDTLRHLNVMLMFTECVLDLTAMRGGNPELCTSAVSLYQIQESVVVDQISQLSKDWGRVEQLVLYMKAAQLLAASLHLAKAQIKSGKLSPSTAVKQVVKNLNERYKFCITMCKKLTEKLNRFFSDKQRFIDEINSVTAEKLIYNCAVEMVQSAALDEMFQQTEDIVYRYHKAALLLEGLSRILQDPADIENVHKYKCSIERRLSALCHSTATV
As to the kind of experiment: Not found.
Text: Not found

Compound `CCC(CC)NC(=O)c1cc(-c2cnn3cc(N4CCNCC4)cnc23)cs1` [US20250059194, Example Table 1.9] showed an IC50 of 325 nM.
